# Reference: US20040002450A1, “Y17 - isolated molecules comprising epitopes containing sulfated moieties, antibodies to such epitopes, and uses thereof” (priority 2000, published 2004)
# Non-standard residues stand in square brackets, D forms with d. No end group written: not given here. sY = N[C@@H](Cc1ccc(OS(=O)(=O)O)cc1)C(=O)O
# What was measured:
# [1] = test system: KG-1 cells; experiment: AML KG-1 model in SCID/NOD mice; assay type: in vivo
# Method: The in vivo mouse model for human AML uses SCID/NOD mice (Jackson Laboratories) inoculated with KG-1 cells derived from a human AML cell line.
# In a first experiment, NOD/SCID mice were pretreated with 100 mg/kg CYTOXAN®. Four days post CYTOXANT injection, KG-1 cells were injected intravenously into the tail vein of six groups of mice. (Table N, Groups 2 and 5-9). One group of mice (Table N, Group 1) was injected with PBS alone (control).
# Beginning 19 days post KG-1 injection mice were treated with: CONY1, Doxorubicin, CONY1-Doxorubicin conjugate, or Mylotarg®. (Mylotarg® is a monoclonal antibody (anti CD33) conjugated chemically to calcheamicin recently approved by the FDA for treatment of AML patients age 60 and over in a first relapse.) Mice were treated once or three times per week for three weeks. One group (group 2) of KG-1 inoculated mice Were left untreated. (Table N). Two other groups of mice (groups 3 and 4) were injected with KG-1 cells that were previously incubated with CONY1 or 181-scFv (a negative, non-specific control antibody) in serum free RPMI containing 1% BSA at 4° C. for 1 h. The antibodies were used at a concentration of 0.25 mg scFv/10^8 cells (75 μg/mouse). Before injection into the mice the preincubated KG-1 cells were washed are resuspended in RPMI. The KG-1 cells in RPMI were inoculated into mice at a concentration of 75 μg scFv/0.2 ml RPMI per mouse. Group 3 mice were inoculated with KG-1+CONY1, and group 4 mice were inoculated with KG-1+181-scFv. (Table N). […]
# Mice were sacrificed from 60 to 65 days post cell injection. Bone marrow and blood samples were analyzed by flow cytometry using mouse anti human CD34-FITC (IQP 144F) (or anti CD44-FITC (MCA89F, Serotec)) and Y1-Biotin/SAV-PE. […]
# An additional experiment was performed in which SCID-NOD mice were i.v. injected with 3×10^4 MOLT-4 cells/mouse 5 days post treatment with cyclophosphamide. […] Bone marrow was extracted and analyzed by FACS analysis using a commercially available antiCD44 antibody for the detection of MOLT-4 cells in the mice bone marrow cell population.
# [2] = test system: Y1 binding to purified glycocalicin; experiment: ELISA: effect of synthetic GPIbα peptides on Y1 binding to purified glycocalicin; set-up: species or system human; conditions: 0.25 μg/well Y1
# Method: ELISA assays were developed to evaluate the effect of the GPIb derived synthetic peptides on the binding of Y1 to purified glycocalicin. In addition, FACS analysis using washed platelets was carried out. To evaluate the importance of sulfated tyrosine within the Y1 binding site of GPIb, a competitive binding FACS analysis was used. Y1-scFv at a concentration of 1 μg was preincubated with different peptides at concentrations of 2.5 and 200 μM. After a preincubation for 30 minutes at room temperature the mixture was added to a tube containing ˜10^7 washed platelets and the binding of Y1 to the washed platelets was assessed using polyclonal rabbit anti-scFv-PE. The inhibitory effect of the peptides compared to control binding (Y1 alone) was evaluated by measuring the residual binding of Y1 to washed platelets. The peptides and the results are described in Table 1 and are similar to results that were observed using the same peptides in an ELISA assay (Table B). In both assays, a control level of Y1 binding was determined, as follows. A polystyrene microtiter maxisorb plate was coated with (a) purified glycocalicin or (b) washed platelets. […] The plate was then incubated with rabbit anti-scFv followed by addition of anti rabbit —HRP (horse radish peroxidase) and HRP substrate. The level of anti rabbit —HRP binding was measured by the intensity of the color produced, and the level of anti rabbit —HRP binding correlates with the level of binding of anti Y1-scFv and the level of binding of Y1. The optical density was measured at A405. Each sample was assayed in duplicate, and the average was calculated.
# The effect of synthetic GPIbα peptides on Y1 binding to purified glycocalicin was evaluated by mixing varying concentrations of the peptides with a constant amount of Y1. After a preincubation for 30 minutes at room temperature, the mixture was added to a polystyrene microtiter maxisorb plate coated with purified glycocalicin, as described for evaluation of Y1 binding in the absence of peptides. The inhibitory effect of the peptides was evaluated by measuring the residual binding of Y1 to glycocalicin using rabbit anti Y1scFv and anti rabbit —HRP antibodies, as described for evaluation of Y1 binding in the absence of peptides. This study was performed with four peptides representing various subsets of the sequence 268 to 285 and a control peptide. Each peptide was tested at different concentrations: 200 μM, 25 μM, 2.5 μM, and 0.5 μM.
# [3] = test system: Y1 binding to washed platelets; experiment: Comparative FACS: effect of synthetic GPIbα peptides on Y1 binding to washed platelets; set-up: species or system human
# Method: ELISA assays were developed to evaluate the effect of the GPIb derived synthetic peptides on the binding of Y1 to purified glycocalicin. In addition, FACS analysis using washed platelets was carried out. To evaluate the importance of sulfated tyrosine within the Y1 binding site of GPIb, a competitive binding FACS analysis was used. Y1-scFv at a concentration of 1 μg was preincubated with different peptides at concentrations of 2.5 and 200 μM. After a preincubation for 30 minutes at room temperature the mixture was added to a tube containing ˜10^7 washed platelets and the binding of Y1 to the washed platelets was assessed using polyclonal rabbit anti-scFv-PE. The inhibitory effect of the peptides compared to control binding (Y1 alone) was evaluated by measuring the residual binding of Y1 to washed platelets. The peptides and the results are described in Table 1 and are similar to results that were observed using the same peptides in an ELISA assay (Table B). In both assays, a control level of Y1 binding was determined, as follows. A polystyrene microtiter maxisorb plate was coated with (a) purified glycocalicin or (b) washed platelets. After extensive washing, 0.5 μg/well of Y1 was added. The plate was then incubated with rabbit anti-scFv followed by addition of anti rabbit —HRP (horse radish peroxidase) and HRP substrate. The level of anti rabbit —HRP binding was measured by the intensity of the color produced, and the level of anti rabbit —HRP binding correlates with the level of binding of anti Y1-scFv and the level of binding of Y1. The optical density was measured at A405. Each sample was assayed in duplicate, and the average was calculated.
# [4] = test system: scFv Y1 binding to glycocalicin; experiment: Competitive binding ELISA of sulfated peptides (scFv Y1 binding to immobilized glycocalicin); set-up: species or system human; conditions: peptide 1, 10 and 100 μM, preincubated 10 minutes with scFv Y1
# Method: A competitive binding ELISA assay was used to assess the importance of the presence and position of sulfated tyrosines to the binding of peptides to Y1.
# Glycocalicin was immobilized on a Maxisorb plate. scFv Y1 was preincubated with a peptide of interest for 10 minutes at three different concentrations (1, 10 and 100 μM) in order to observe a dose response. (Table 12). After preincubation, the mixture (Y1+peptide) was added to the plate, and binding of scFv Y1 was assessed using polyclonal rabbit anti-VL, which recognizes the VL chain of scFv Y1, followed by anti-rabbit-HRP. In mixtures in which the peptide bound to scFv Y1, a decrease in the binding of scFv Y1 to glycocalicin compared to control binding was observed.
compound,measurement,setting,value
COc1cccc2c1C(=O)c1c(O)c3c(c(O)c1C2=O)C[C@@](O)(C(=O)CO)C[C@@H]3O[C@H]1C[C@H](N)[C@H](O)[C@H](C)O1 [Doxorubicin],percentage of KG-1 cells in bone marrow compared to untreated group 2 (in words),"[1]; 0.1 mg/kg free Doxorubicin, 3 times per week (group 6)",statistically significant (p<0.05) lower percentage
"GDEGDTDLY*DY*Y*P (GDEGDTDL[sY]D[sY][sY]P) [P-3-S, residues 268-280 of GPIbα, Y* sulfated tyrosine]",Residual Binding of Y1 (% of baseline),[2]; peptide 0.5 μM,80 % of baseline
same,Residual Binding of Y1 (% of baseline),[2]; peptide 2.5 μM,67 % of baseline
same,Residual Binding of Y1 (% of baseline),[2]; peptide 25 μM,21 % of baseline
same,Residual Binding of Y1 (% of baseline) (Geo Mean),[3]; peptide 2.5 μM,82 % of baseline
same,Residual Binding of Y1 (% of baseline) (Geo Mean),[3]; peptide 200 μM,26 % of baseline
"GDEGDTDLY*DY*Y*PEEDTE (GDEGDTDL[sY]D[sY][sY]PEEDTE) [P-1-S, residues 268-285 of GPIbα, Y* sulfated tyrosine]",Residual Binding of Y1 (% of baseline),[2]; peptide 0.5 μM,89 % of baseline
same,Residual Binding of Y1 (% of baseline),[2]; peptide 2.5 μM,62 % of baseline
same,Residual Binding of Y1 (% of baseline),[2]; peptide 25 μM,25 % of baseline
same,Residual Binding of Y1 (% of baseline),[2]; peptide 200 μM,0 % of baseline
same,Residual Binding of Y1 (% of baseline) (Geo Mean),[3]; peptide 2.5 μM,41 % of baseline
same,Residual Binding of Y1 (% of baseline) (Geo Mean),[3]; peptide 200 μM,5 % of baseline
same,inhibition of Y1 binding to glycocalicin (in words),[4],did inhibit
"GDEGDTDLYDYYPEEDTE [P-1, residues 268-285 of GPIbα, non-sulfated]",Residual Binding of Y1 (% of baseline),[2]; peptide 0.5 μM,88 % of baseline
same,Residual Binding of Y1 (% of baseline),[2]; peptide 2.5 μM,94 % of baseline
same,Residual Binding of Y1 (% of baseline),[2]; peptide 25 μM,71 % of baseline
same,Residual Binding of Y1 (% of baseline),[2]; peptide 200 μM,61 % of baseline
same,Residual Binding of Y1 (% of baseline) (Geo Mean),[3]; peptide 2.5 μM,106 % of baseline
same,Residual Binding of Y1 (% of baseline) (Geo Mean),[3]; peptide 200 μM,87 % of baseline
"Mylotarg: monoclonal antibody (anti CD33) conjugated chemically to calcheamicin, FDA approved for AML",KG-1 cells in bone marrow (in words),"[1]; 0.2 mg/kg, 1 time per week (group 9)",free of KG 1 cells
same,development of the malignancy / prevalence of bone marrow cancer (in words),"[1]; additional experiment, day 60, CONY1 scFv 75 μg/mouse three times/week, Mylotarg 7 μg/mouse once a week",completely inhibited
"REEGRQHFFLLEGRSSYS [negative control peptide, reference compound]",Residual Binding of Y1 (% of baseline),[2]; peptide 0.5 μM,121 % of baseline
same,Residual Binding of Y1 (% of baseline),[2]; peptide 2.5 μM,100 % of baseline
same,Residual Binding of Y1 (% of baseline),[2]; peptide 25 μM,89 % of baseline
same,Residual Binding of Y1 (% of baseline),[2]; peptide 200 μM,85 % of baseline
same,Residual Binding of Y1 (% of baseline) (Geo Mean),[3]; peptide 2.5 μM,96 % of baseline
same,Residual Binding of Y1 (% of baseline) (Geo Mean),[3]; peptide 200 μM,119 % of baseline
"TDLY*DY*Y*PEEDTE (TDL[sY]D[sY][sY]PEEDTE) [P-2-S, residues 273-285 of GPIbα, Y* sulfated tyrosine]",Residual Binding of Y1 (% of baseline),[2]; peptide 0.5 μM,78 % of baseline
same,Residual Binding of Y1 (% of baseline),[2]; peptide 2.5 μM,52 % of baseline
same,Residual Binding of Y1 (% of baseline),[2]; peptide 25 μM,15 % of baseline
same,Residual Binding of Y1 (% of baseline) (Geo Mean),[3]; peptide 2.5 μM,61 % of baseline
same,Residual Binding of Y1 (% of baseline) (Geo Mean),[3]; peptide 200 μM,7 % of baseline
